Test results as given in patent US9932335B2 (priority 2013, dated 2018).
Changes are numbered by the printed parent chain. Where two headings read alike, the source gives them in different places.

How the values were obtained:
[1] = target: T1, human M1 (Homo sapiens, UniProt P11229); experiment: M1 PAM assay (FLIPR intracellular calcium, CHO human M1); format: cell-based
T1 construct: expressed in transfected cells; host or cells: CHO cells
T1 sequence (P11229 1-460): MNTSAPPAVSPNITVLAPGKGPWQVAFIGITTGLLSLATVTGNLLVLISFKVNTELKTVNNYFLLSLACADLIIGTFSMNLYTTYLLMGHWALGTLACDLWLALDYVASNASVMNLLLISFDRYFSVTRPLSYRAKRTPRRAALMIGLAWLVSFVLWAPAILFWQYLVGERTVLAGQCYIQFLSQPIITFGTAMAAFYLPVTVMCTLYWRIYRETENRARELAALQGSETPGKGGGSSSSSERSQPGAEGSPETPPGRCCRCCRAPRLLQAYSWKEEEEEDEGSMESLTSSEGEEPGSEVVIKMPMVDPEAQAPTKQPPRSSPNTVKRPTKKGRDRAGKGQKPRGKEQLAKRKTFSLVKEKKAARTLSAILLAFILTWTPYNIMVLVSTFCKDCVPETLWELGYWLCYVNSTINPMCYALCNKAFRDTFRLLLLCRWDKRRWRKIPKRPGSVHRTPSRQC
Procedure: The assay study the effect of several concentrations of test compounds on basal or acetylcholine-stimulated Ca^2+ levels using FLIPR. CHO human M1 are plated the day before the experiments at 2×10^5 cells/ml in PDL BioCoat 96 well black/clear plate (Becton 35 4640). The cells are grown at 37° C. and 5% CO2 in the following medium: F12 Nut Mix (Gibco 21765), 10% FCS heat inactivated (GIBCO 16000-044), 1% Pen Strep (Gibco, 15140) and 200 μg/ml Geneticin (Gibco 11811). On the day of the experiment, the medium was removed and replaced by 100 μl of dye loading buffer containing Hanks Balanced Salt solution (HBSS, 14065-049, Gibco) with 20 mM HEPES (Gibco 15630-056), 2 mM Probenicid (Sigma P8761), […] (Molecular Probes F-14202), 10% Pluronic acid Molecular Probes P-3000) pH=7.4 and incubated at 37° C. After 60 minutes extracellular dye was removed and the cells were washed five times with FLIPR buffer containing HBSS (Gibco 14065-049) with 20 mM HEPES (Gibco, 15630-056), 2 mM Probenicid (Sigma P8761) pre-warmed at 37° C. using and Ebml cell washer leaving 100 μl of FLIPR buffer in each well. The cell plate and the diluted compounds (1% DMSO final concentration) are placed on the platform of the FLIPR and the door closed. A signal test to check background fluorescence and basal fluorescence signal is performed. Laser intensity is adjusted if necessary. Two minutes preincubation with the diluted test compounds is provide to determine any agonist activity on the M1 receptor by comparison to 30 nM Acetylcholine control. In order to determine any modulator activity the diluted compounds were added to cells and after two minutes preincubation, the EC20 of acetylcholine is added followed by another two minutes preincubation before the measurement of intracellular Ca^2+ with a FLIPR (Molecular Devices).

[2] = target: T2, M1 receptor (Rattus norvegicus, UniProt P08482); experiment: M1 PAM assay (FLIPR intracellular calcium), rat; format: cell-based
T2 construct: expressed in transfected cells
T2 sequence (P08482 1-460): T1 sequence (P11229 1-460) with A5V, T254S, P309S, R320K, A337G, I413V

[3] = human M1 in CHO cells, modulator activity with EC20 of acetylcholine, FLIPR Ca2+, read-out: EC50 h PAM
[4] = rat, modulator activity with EC20 of acetylcholine, FLIPR Ca2+, read-out: EC50 rat PAM

Compound	EC50 [1, 3] [nM]	EC50 [2, 4] [nM]	EC50 [1] [nM]	EC50 [2] [nM]
Cn1cc(-c2ccc(Cn3cc(C(=O)N[C@H]4CCCC[C@@H]4F)c4ncccc43)c(F)c2)cn1 (racemic) [Example 58, 1-(2-fluoro-4-(1-methyl-1H-pyrazol-4-yl)benzyl)-N-((1SR,2SR)-2-fluorocyclohexyl)-1H-pyrrolo[3,2-b]pyridine-3-carboxamide]	239	453	–	–
Cn1cc(-c2ccc(Cn3cc(C(=O)N[C@H]4CCOC[C@@H]4O)c4ncccc43)c(F)c2)cn1 (single isomer, unassigned) [Example 59, 1-[[2-fluoro-4-(1-methylpyrazol-4-yl)phenyl]methyl]-N-[(3R,4S) or (3S,4R)-3-hydroxyoxan-4-yl]pyrrolo[3,2-b]pyridine-3-carboxamide]	–	–	15.5	18
NC(=O)c1ccc(Cn2cc(C(=O)N[C@@H]3CCOC[C@H]3O)c3ncccc32)cc1 (stereo in doubt) [Example 63a, 1-(4-Carbamoylbenzyl)-N-((3S,4R)-3-hydroxytetrahydro-2H-pyran-4-yl)-1H-pyrrolo[3,2-b]pyridine-3-carboxamide]	–	–	289	661
NC(=O)c1ccc(Cn2cc(C(=O)N[C@H]3CCOC[C@@H]3O)c3ncccc32)cc1 (stereo in doubt) [Example 63b, 1-(4-carbamoylbenzyl)-N-((3R,4S)-3-hydroxytetrahydro-2H-pyran-4-yl)-1H-pyrrolo[3,2-b]pyridine-3-carboxamide]	–	–	13	47
O=C(N[C@H]1CCCC[C@@H]1O)c1cn(Cc2cc(Br)ccc2F)c2cccnc12 [Example 1, 1-(5-bromo-2-fluorobenzyl)-N-((1S,2S)-2-hydroxycyclohexyl)-1H-pyrrolo[3,2b]pyridine-3-carboxamide]	–	–	545	1950
Cn1cc(-c2ccc(Cn3cc(C(=O)N[C@H]4CCCC[C@@H]4O)c4ncccc43)c(F)c2)cn1 [Example 2, 1-(2-fluoro-4-(1-methyl-1H-pyrazol-4-yl)benzyl)-N-((1S,2S)-2-hydroxycyclohexyl)-1H-pyrrolo[3,2-b]pyridine-3-carboxamide]	9.86	34.7	–	–
Cn1cc(-c2ccc(Cn3cc(C(=O)N[C@@H]4CCCC[C@H]4O)c4ncccc43)c(F)c2)cn1 [Example 3, 1-(2-fluoro-4-(1-methyl-1H-pyrazol-4-yl)benzyl)-N-((1R,2R)-2-hydroxycyclohexyl)-1H-pyrrolo[3,2-b]pyridine-3-carboxamide]	–	–	101	131
O=C(N[C@H]1CCCC[C@@H]1O)c1cn(Cc2ccc(Cl)nc2)c2cccnc12 [Example 5, 1-((6-chloropyridin-3-yl)methyl)-N-((1S,2S)-2-hydroxycyclohexyl)-1H-pyrrolo[3,2-b]pyridine-3-carboxamide]	–	–	489	2320
Cn1cc(-c2ccc(Cn3nc(C(=O)N[C@H]4CCCC[C@@H]4O)c4ncccc43)c(F)c2)cn1 [Example 6, 1-(2-fluoro-4-(1-methyl-1H-pyrazol-4-yl)benzyl)-N-((1S,2S)-2-hydroxycyclohexyl)-1H-pyrazolo[4,3-b]pyridine-3-carboxamide]	25.3	71.5	–	–
C[C@@H](CO)NC(=O)c1cn(Cc2ccc(-c3cnn(C)c3)cc2F)c2cccnc12 [Example 8, 1-[2-Fluoro-4-(1-methyl-1H-pyrazol-4-yl)-benzyl]-1H-pyrrolo[3,2-b]pyridine-3-carboxylic acid ((S)-2-hydroxy-1-methyl-ethyl)-amide]	–	–	248	695
Cn1cc(-c2ccc(Cn3cc(C(=O)NCC(C)(C)O)c4ncccc43)c(F)c2)cn1 [Example 11, 1-[2-Fluoro-4-(1-methyl-1H-pyrazol-4-yl)-benzyl]-1H-pyrrolo[3,2-b]pyridine-3-carboxylic acid (2-hydroxy-2-methyl-propyl)-amide]	–	–	317	616
CC[C@@H](CO)NC(=O)c1cn(Cc2ccc(-c3cnn(C)c3)cc2F)c2cccnc12 [Example 12, 1-[2-Fluoro-4-(1-methyl-1H-pyrazol-4-yl)-benzyl]-1H-pyrrolo[3,2-b]pyridine-3-carboxylic acid ((S)-1-hydroxymethyl-propyl)-amide]	–	–	129	244
CCC(CO)NC(=O)c1cn(Cc2ccc(-c3cnn(C)c3)cc2F)c2cccnc12 (stereo not drawn) [Example 13, 1-[2-Fluoro-4-(1-methyl-1H-pyrazol-4-yl)-benzyl]-1H-pyrrolo[3,2-b]pyridine-3-carboxylic acid (1-hydroxymethyl-propyl)-amide]	–	–	195	632
CCC(O)CNC(=O)c1cn(Cc2ccc(-c3cnn(C)c3)cc2F)c2cccnc12 (stereo not drawn) [Example 14, 1-[2-Fluoro-4-(1-methyl-1H-pyrazol-4-yl)-benzyl]-1H-pyrrolo[3,2-b]pyridine-3-carboxylic acid (2-hydroxy-butyl)-amide]	100	155	–	–
Cn1cc(-c2ccc(Cn3cc(C(=O)N[C@H]4CCC[C@@H]4O)c4ncccc43)c(F)c2)cn1 [Example 17, 1-[2-Fluoro-4-(1-methyl-1H-pyrazol-4-yl)-benzyl]-1H-pyrrolo[3,2-b]pyridine-3-carboxylic acid ((1S,2S)-2-hydroxy-cyclopentyl)-amide]	–	–	64.9	272
Cn1cc(-c2ccc(Cn3cc(C(=O)N[C@H]4CCC[C@H]4O)c4ncccc43)c(F)c2)cn1 [Example 18, 1-[2-Fluoro-4-(1-methyl-1H-pyrazol-4-yl)-benzyl]-1H-pyrrolo[3,2-b]pyridine-3-carboxylic acid ((1S,2R)-2-hydroxy-cyclopentyl)-amide]	–	–	96	195
CC(C)[C@@H](CO)NC(=O)c1cn(Cc2ccc(-c3cnn(C)c3)cc2F)c2cccnc12 [Example 19, 1-[2-Fluoro-4-(1-methyl-1H-pyrazol-4-yl)-benzyl]-1H-pyrrolo[3,2-b]pyridine-3-carboxylic acid ((S)-1-hydroxymethyl-2-methyl-propyl)-amide]	–	–	178	285
CCCC(CO)NC(=O)c1cn(Cc2ccc(-c3cnn(C)c3)cc2F)c2cccnc12 (stereo not drawn) [Example 20, 1-[2-Fluoro-4-(1-methyl-1H-pyrazol-4-yl)-benzyl]-1H-pyrrolo[3,2-b]pyridine-3-carboxylic acid (1-hydroxymethyl-butyl)-amide]	–	–	199	499
CC(C)C(CO)NC(=O)c1cn(Cc2ccc(-c3cnn(C)c3)cc2F)c2cccnc12 (stereo not drawn) [Example 22, 1-[2-Fluoro-4-(1-methyl-1H-pyrazol-4-yl)-benzyl]-1H-pyrrolo[3,2-b]pyridine-3-carboxylic acid (1-hydroxymethyl-2-methyl-propyl)-amide]	–	–	183	381
Cn1cc(-c2ccc(Cn3cc(C(=O)NCC4(O)CCCC4)c4ncccc43)c(F)c2)cn1 [Example 24, 1-[2-Fluoro-4-(1-methyl-1H-pyrazol-4-yl)-benzyl]-1H-pyrrolo[3,2-b]pyridine-3-carboxylic acid (1-hydroxy-cyclopentylmethyl)-amide]	193	261	–	–
CC[C@H](C)[C@@H](CO)NC(=O)c1cn(Cc2ccc(-c3cnn(C)c3)cc2F)c2cccnc12 [Example 26, 1-[2-Fluoro-4-(1-methyl-1H-pyrazol-4-yl)-benzyl]-1H-pyrrolo[3,2-b]pyridine-3-carboxylic acid ((1S,2S)-1-hydroxymethyl-2-methyl-butyl)-amide]	143	302	–	–
